In US11623944B2, “Paenibacillus strain, antifungal compounds, and methods for their use” (Bayer CropScience LP, priority 2015, dated 2023) one finds Sensitive/Resistant data, which are given here for 2 molecules.

The test system of the assay is Paenibacillus sp. strain NRRL B-50972. The experiment in a line: Antibiotic sensitivity on sLB agar. Format: cell-based. The note with it: growth after 24, 48, 72 hours at 30° C.

Consider `CCn1cc(C(=O)O)c(=O)c2ccc(C)nc21` [Nalidixic acid], for which the Sensitive/Resistant result (antibiotic 25 μg/mL) is listed as “Sensitive”.

Take Polymyxin B: the Sensitive/Resistant entry (antibiotic 10 μg/mL) is reported as “Resistant”.
